In patent US20070258912A1, “Use of Fluorescent Whitening Agents as Antimicrobials” (priority 2004, published 2007):
Where two headings read alike, the source gives them in different places.

Tests used:
Assay type in all cases: cell-based
[1] = test system: Corynebacterium minutissimum; test: MIC in the agar incorporation test; conditions: read-out: MIC Corynebacterium minutissimum
Staphylococcus aureus [2] = test: MIC in the agar incorporation test; conditions: ATCC6583, agar incorporation, Mueller Hinton agar, 24 hours at 37° C., ATCC 6583, read-out: MIC Staphylococcus aureus
Protocol: (§1) Determination of Minimum Inhibitory Concentration (MIC Values) in the Agar Incorporation Test
(§2) 1% stock solutions of the substances are prepared in an appropriate solvent and diluted in serial dilutions 1:2 (to yield end concentrations in the agar of 500-1.9 ppm). 0.3 ml of each dilution step is mixed with 15 ml of nutrient medium while the latter is still liquid. After the nutrient medium has solidified, 10 μl of each test strain in 0.85% NaCl solution are spotted onto the agar medium.
(§3) The plates are incubated at 37° C. for 24 hours and then the highest dilution (lowest concentration) of the test substance at which growth is no longer observable is determined.
(§4) Test Organisms: Staphylococcus aureus ATCC 6583 Staphylococcus epidermidis ATCC 12228 Corynebacterium xerosis ATCC 373 Propionibacterium acnes ATCC Escherichia coli ATCC 10536 Salmonella choleraesuis ATCC Klebsiella pneumoniae ATCC *Candida albicans ATCC 10231
(§5) *Aspergillus niger ATCC 6275

Salmonella choleraesuis = test: MIC in the agar incorporation test; conditions: Salmonella enterica, Mueller Hinton agar, 24 hours at 37° C.
Protocol: as §1, §2, §3, §4, §5

Klebsiella pneumoniae = test: MIC in the agar incorporation test; conditions: Mueller Hinton agar, 24 hours at 37° C.
Protocol: as §1, §2, §3, §4, §5

Staphylococcus epidermis = test: MIC in the agar incorporation test
Protocol: as §1, §2, §3, §4, §5

Propionibacterium acnes = test: MIC in the agar incorporation test; conditions: Cutibacterium acnes, read-out: MIC Propionibacterium acnes
Protocol: as §1, §2, §3, §4, §5

Corynebacterium xerosis [3] = test: MIC in the agar incorporation test
Protocol: as §1, §2, §3, §4, §5

Streptococcus gordonii = test: MIC against oral microorganisms via broth dilution; conditions: ATCC10558, broth dilution 0.94-15 ppm, 24 h aerobically with 10% CO2, ATCC 10558, read-out: MIC Streptococcus gordonii
Protocol: (§6) Determination of the Minimum Inhibition Concentration (MIC Value) Against Different Oral Microorganisms Via Broth Dilution
(§7) 1500 ppm stock solutions of the substances are prepared in ethanol and pipetted into the growth medium to yield concentrations between 0.94 and 15 ppm. Bacteria are taken from blood agar plates with cotton swabs and adjusted in the appropriate growth medium to yield an optical density corresponding to McFarland 0.5. This suspension is directly used in the case of F. nucleatum and P. nigrescens. For the other strains, the suspension is diluted 1:20. 0.1 ml of these bacterial suspensions are added to 2 ml of the substance solutions. After the incubation time, the tubes are assessed for growth (turbidity).
(§8) Test Organisms: *Actinobacillus actinomycetemcomitans ATCC 43718 *Stretococcus gordonii ATCC 10558 *Streptococcus mutans ATCC 33402 Actinomyces viscosus ATCC 43146 Fusobacterium nucleatum subsp. polymorphum ATCC 10953 Porphyromonas gingivalis ATCC 33277
(§9) Prevotella nigrescens ATCC 33563

Porphyromnas gingivalis = test: MIC against oral microorganisms via broth dilution; conditions: broth dilution 0.94-15 ppm, Columbia bouillon, 7-10 days at 37° C. anaerobically, ATCC 33277; read-out: MIC Porphyromnas gingivalis
Protocol: as §6, §7, §8, §9

[4] = test system: Actinobacillus actinomycetemcomitans; test: MIC against oral microorganisms via broth dilution; conditions: Aggregatibacter actinomycetemcomitans, ATCC43718; broth dilution 0.94-15 ppm, 24 h aerobically with 10% CO2, ATCC 43718
Protocol: as §6, §7, §8, §9

Prevotella nigrescens = test: MIC against oral microorganisms via broth dilution; conditions: ATCC33563, broth dilution 0.94-15 ppm, Columbia bouillon, 7-10 days at 37° C. anaerobically, ATCC 33563, read-out: MIC Prevotella nigrescens
Protocol: as §6, §7, §8, §9

Streptococcus mutans = test: MIC against oral microorganisms via broth dilution; conditions: ATCC33402, broth dilution 0.94-15 ppm, 24 h aerobically with 10% CO2, ATCC 33402, read-out: MIC Streptococcus mutans
Protocol: as §6, §7, §8, §9

Actinomyces viscosus [5] = test: MIC against oral microorganisms via broth dilution; conditions: ATCC43146, broth dilution 0.94-15 ppm, 7-10 days at 37° C. anaerobically, ATCC 43146, read-out: MIC Actinomyces viscosus
Protocol: as §6, §7, §8, §9

[6] = test system: Fusobacterium nucleatum subsp. polymorphum; test: MIC against oral microorganisms via broth dilution; conditions: ATCC10953, broth dilution 0.94-15 ppm, 7-10 days at 37° C. anaerobically, ATCC 10953, read-out: MIC Fusobacterium nucleatum subsp. polymorphum
Protocol: as §6, §7, §8, §9

Staphylococcus aureus [7] = test: Microbicidal activity (suspension test, plate count); conditions: 120 ppm, ATCC 6538
Protocol: (§10) Determination of Microbicidal Activity
(§11) 1 g stock solution with an appropriate concentration of test products are mixed with 8 g water and then inoculated with 1 ml of the selected test organisms. After a given contact period, aliquots are taken, inactivated and diluted. The number of surviving bacteria per ml incubation assay is determined by plate count. Proper inactivation by the inactivating medium used was checked each time.
(§12) Diluent: tryptone water for microorganisms
(§13) • (0.1% tryptone (Oxoid), 0.85% NaCl, deion. water) • deion. water for test substances • inactivating medium for detection of surviving microorganisms Growth medium: casein soybean peptone agar Inactivating Medium: tryptic soy broth special • (10% w/w Tween 80, 3% w/w Lecithine, 0.1% w/w L-Histidine, • 0.055% w/w Sodium thiosulfate) Test organisms: Staphylococcus aureus ATCC 6538 • Escherichia coli ATCC 10536 • Actinomyces viscosus ATCC 43146 • Corynebacterium xerosis ATCC 373 Test concentration: 120 ppm and 1200 ppm Contact times: 5 and 30 minutes at 22° C.
(§14) Incubation time: 24 h at 37° C.

Actinomyces viscosus [8] = test: as above; conditions: 120 ppm, ATCC 43146
Protocol: as §10, §11, §12, §13, §14

Escherichia coli [9] = test: as above; conditions: 120 ppm, ATCC 10536
Protocol: as §10, §11, §12, §13, §14

Corynebacterium xerosis [10] = test: as above; conditions: 120 ppm, ATCC 373
Protocol: as §10, §11, §12, §13, §14

Escherichia coli [11] = test: MIC in the agar incorporation test; conditions: ATCC10536, agar incorporation, Mueller Hinton agar, 24 hours at 37° C., ATCC 10536, read-out: MIC Escherichia coli
Protocol: as §1, §2, §3, §4, §5

[12] = agar incorporation, Mueller Hinton agar, 24 hours at 37° C.
[13] = ATCC12228, agar incorporation, Mueller Hinton agar, 24 hours at 37° C., ATCC 12228, read-out: MIC Staphylococcus epidermis
[14] = ATCC373, agar incorporation, Mueller Hinton agar, 24 hours at 37° C., ATCC 373, read-out: MIC Corynebacterium xerosis

SMILES	MIC [1, 12] [µg/mL]	MIC (Staphylococcus aureus [2]) [µg/mL]	MIC (Salmonella choleraesuis) [µg/mL]	MIC (Klebsiella pneumoniae) [µg/mL]	MIC (Staphylococcus epidermis; [13]) [µg/mL]	MIC (Propionibacterium acnes; [12]) [µg/mL]	MIC (Corynebacterium xerosis [3]; [14]) [µg/mL]	MIC (Streptococcus gordonii) [µg/mL]	MIC (Porphyromnas gingivalis) [µg/mL]	MIC (Prevotella nigrescens) [µg/mL]	MIC (Streptococcus mutans) [µg/mL]	MIC (Actinomyces viscosus [5]) [µg/mL]	MIC [6] [µg/mL]	also measured
Cc1ccc(/C=C/c2ccc(/C=C/c3ccc(C)c(OCCCN(C)C)c3)cc2)cc1OCCCN(C)C [formula 30]	3.1	12.5	200	25	12.5	6.3	3.1	15	3.8	3.8	7.5	3.8	3.8	MIC [4]: 15 µg/mL
CN(C)CCSc1ccccc1/C=C/c1ccc(/C=C/c2ccccc2SCCN(C)C)cc1 [formula 23]	3.9	7.8	125	31.3	15.6	3.9	7.8	7.5	3.75	7.5	7.5	3.75	7.5	Microbicidal activity Staphylococcus aureus 120 ppm/5 min (Staphylococcus aureus [7]; 5 min contact at 22° C.): 2 log reduction; Microbicidal activity Staphylococcus aureus 120 ppm/30 min (Staphylococcus aureus [7]; 30 min contact at 22° C.): 4 log reduction; Microbicidal activity Actinomyces viscosus 120 ppm/5 min (Actinomyces viscosus [8]; 5 min contact at 22° C.): 2 log reductions; Microbicidal activity Actinomyces viscosus 120 ppm/30 min (Actinomyces viscosus [8]; 30 min contact at 22° C.): 4 log reductions; Microbicidal activity Escherichia coli 120 ppm/5 min (Escherichia coli [9]; 5 min contact at 22° C.): 3.3 log reduction; Microbicidal activity Escherichia coli 120 ppm/30 min (Escherichia coli [9]; 30 min contact at 22° C.): 5 log reduction; Microbicidal activity Corynebacterium xerosis 120 ppm/5 min (Corynebacterium xerosis [10]; 5 min contact at 22° C.): 5 log reductions; Microbicidal activity Corynebacterium xerosis 120 ppm/30 min (Corynebacterium xerosis [10]; 30 min contact at 22° C.): 5 log reductions; MIC (Escherichia coli [11]): 125 µg/mL
C[n+]1ccccc1COc1ccccc1/C=C/c1ccc(-c2ccc(/C=C/c3ccccc3OCc3cccc[n+]3C)cc2)cc1 [formula 32]														MIC ([1]; 24 h): 200 µg/mL; MIC (Staphylococcus epidermis; ATCC12228, 24 h, read-out: MIC Staphylococcus epidermis): 50 µg/mL; MIC (Propionibacterium acnes; 24 h): 100 µg/mL; MIC (Corynebacterium xerosis [3]; ATCC373, 24 h, read-out: MIC Corynebacterium xerosis): 100 µg/mL
